Patent publication US20020054941A1, “Methods and compositions to enhance tenderness and value of meat” (The Board of Regents of the University of Nebraska, priority 2000, published 2002)
Marks after values point to notes of the source that are not given here.

What was measured:
Assay in all cases: Glycogen content, pre-rigor injection of whole muscle
[1] = test system: supraspinatus beef muscles
Description: (§1) Experiment were conducted to test the effects of pre-rigor injection of several compounds. Effects of these compounds on pH, color, tenderness and other related traits of low-value beef cuts were investigated. Ten steers (22 to 24 mo of age, 515 to 676 kg live weight) were slaughtered according to current industry procedures. Pre-rigor semimembranosus (from the round), triceps brachii and supraspinatus muscles (from the chuck) were excised, after evisceration (approximately 1 hour post-mortem), from both sides of the carcass. Muscle sections were randomly assigned to the treatments: sodium citrate (NaC; 200 mM), sodium fluoride (NaF; 200 mM), sodium acetate (NaA; 200 mM), and calcium chloride (CaCl2; 300 mM). The control samples remained on the carcass at 2° C. for 24 hours to simulate commercial conditions. Following a cooling, control muscles were removed from each carcass (4 replicates), vacuum packaged and transferred to the holding cooler with the other cuts at 2° C. Calcium chloride treatment was included to be compared with the other treatments.
(§2) At 2 hours post-mortem, each muscle was injected with a volume equal to 8% of the muscle weight using a four-needle hand injector. The temperature of solutions were 4° C. Each muscle was individually treated (2% of solution was added to give a total of 10% of muscle weight) and tumbled in a 75-pound capacity tumbler (Röschermatic, Oshabrück, Germany) for 30 min to insure uniform distribution of the solution.
(§3) Samples of each muscle (approximately 100 g) were taken at 0 hour (before injection), 24, and 72 hours after injection for determination of pH, oxidation-reduction potential, glycogen content, R-values, NAD, and NADH. The samples were then immediately frozen in liquid nitrogen and stored at −80° C. until they were powdered and analyzed. Fresh muscle samples (approximately 20 g) were taken at 72 hours after injection and assayed immediately for water holding capacity and sarcomere length.
(§4) Glycogen extraction was performed in duplicate with 3 g of frozen-powdered muscle sample, which was homogenized with 0.6 N perchloric acid. Amylo-α-1,4-α-1,6- glucosidase from Aspergillus niger (No. A3514. Sigma Chemical, St. Louis, Mo.) was used for the breakdown of the glycogen molecules to free glucose following the method described by Roehrig and Allred (1974). Homogenate was incubated for 2 hours at 37° C., then 100 μL of 3 N perchloric acid was added to precipitate the proteins. After centrifugation, the supernatant was stored at 0-4° C., until analyzed, which was within 2 weeks.
(§5) The assay for glucose was run as described by Dalrymple and Hamm (1973) and Roehrig and Allred (1974), using glucose-6-phosphate dehydrogenase (No. G8878. Sigma Chemical, St. Louis, Mo.) and hexokinase (No. H5500. Sigma Chemical, St. Louis, Mo.). Briefly, the method involves an exoglucosidase, Amylogucosidase, from Aspergillus niger which hydrolyses the -α-D-(1-4) and -α-D-(1-6)-linkages of glycogen. The glucose formed is specifically determined with hexokinase and glucose-6-phosphate dehydrogenase. The glucose liberated after hydrolysis of glycogen is proportional to the increase of absorbance measured at 340 nm. Fifty μL of sample was incubated with 1 mL ATP, NADP, Glucose-6-phosphate dehydrogenase buffer and 5 μL hexokinase at 37° C. for 15 min. Absorbance was measured at 340 nm wavelength, light path=1 cm. The muscle glycogen content was calculated with the following formula: Glycogen (μmol glucose/g wet muscle weight)=111.882×absorbance. 111.882 is the dilution factor.

[2] = test system: triceps brachii beef muscles; conditions: 200 mM, calcium chloride 300 mM
Description: as §1, §2, §3, §4, §5

[3] = test system: semimembranosus beef muscles
Description: as §1, §2, §3, §4, §5

[4] = 24 h, 200 mM, calcium chloride 300 mM
[5] = 72 h, 200 mM, calcium chloride 300 mM

With `O=C([O-])CC(O)(CC(=O)[O-])C(=O)[O-].[Na+].[Na+].[Na+]` [Sodium citrate, sodium citrate] the “Glycogen, 0 h” value ([1]; 0 h (before injection)) was 45.18 μmol/g muscle, the “Glycogen, 24 h” value [1, 4] was 30.43 μmol/g muscle and the “Glycogen, 72 h” value [1, 5] was 22.65^ab μmol/g muscle. For the same molecule, the “Glycogen, 0 h” value ([2]; 0 h (before injection)) was 38.74 μmol/g muscle, the “Glycogen, 24 h” value ([2]; 24 h) was 32.93^b μmol/g muscle and the “Glycogen, 72 h” value ([2]; 72 h) was 27.58^b μmol/g muscle. The “Glycogen, 0 h” value ([3]; 0 h (before injection)) was 65.12 μmol/g muscle, the “Glycogen, 24 h” value [3, 4] was 52.83^a μmol/g muscle and the “Glycogen, 72 h” value [3, 5] was 45.65^a μmol/g muscle.
